# How the values were obtained:
# [1] = Diet-induced obese C57B6 mice, s.c. Peptide X-PEG / Y-PEG (Examples 45-49); assay type: in vivo
# Method: C57BI/6 mice were obtained from Jackson Laboratories and fed a diabetogenic diet from Research Diets, a high sucrose diet with 58% kcal from fat. Mice were single or group-housed on a 12:12-h light-dark cycle at 22° C. with free access to food and water. All studies were approved by and performed according to the guidelines of the Institutional Animal Care and Use Committee of the University of Cincinnati.
# Whole body composition (fat and lean mass) was measured using NMR technology (EchoMRI, Houston, Tex.).
# Energy intake and expenditure, as well as home-cage activity, were assessed by using a combined indirect calorimetry system (TSE Systems, Bad Homburg, Germany). Oxygen consumption and CO2 production were measured every 45 min for a total of 120 h (including 12 h of adaptation) to determine the respiratory quotient and energy expenditure. Food and water intake and meal patterns were determined continuously for 120 h at the same time as the indirect calorimetry assessments by integration of scales into the sealed cage environment. Meals were defined as food intake events with a minimum duration of 60 s, and a break of 300 s between food intake events. Home-cage locomotor activity was determined using a multidimensional infrared light beam system with beams scanning the bottom and top levels of the cage, and activity being expressed as beam breaks. Stationary motor activity (fidgeting) was defined as consecutive breaks of one single light beam at cage-bottom level, ambulatory movement as breaks of any two different light beams at cage-bottom level, and rearing as simultaneous breaks of light beams on both cage-bottom and the top level.
# Blood was collected after a 6-h fast from tail veins using EDTA-coated Microvette tubes (Sarstedt, Nuremberg, Germany) and immediately chilled on ice. After 15 min of centrifugation at 3,000 g and 4° C., plasma was stored at −80° C. Plasma insulin was quantified by a radioimmunoassay from Linco (Sensitive Rat Insulin RIA; Linco Research, St. Charles, Mo.). Plasma TGs and cholesterol levels were measured by enzymatic assay kits (Thermo Electron, Waltham, Mass.). Samples were analyzed individually with the exception that pooled samples (0.25 ml) from 5 animals/group were subjected to fast-performance liquid chromatography (FPLC) gel filtration on two Superose 6 columns connected in series for lipoprotein separation. All assays were performed according to the manufacturer's instructions.
# For the determination of glucose tolerance, mice were subjected to 6 h of fasting and injected intraperitoneally (i.p.) with 2 g glucose/kg body wt (50% D-glucose (Sigma) in 0.9% saline) for the glucose tolerance test (GTT). Tail blood glucose levels (mg/dl) were measured by using a hand-held glucometer (TheraSense Freestyle) before (0 min) and at 15, 30, 60, 90, and 120 min after injection.
# The 40-kd pegylated peptides Peptides X-PEG and Y-PEG were used as single weekly subcutaneous (s.c) injections in diet-induced obese (D10) C57B6 mice.
# Long-term effects of these lower doses on food intake (p=0.95; FIG. 29C) were less impressive than short-term effects with a higher dose (FIG. 27C).
# [2] = system: hormone sensitive lipase (HSL); assay: Western blot of WAT HSL phosphorylation; assay type: in vivo, mice; conditions: one month treatment
# Method: Adipose tissue was placed in a 1.5-ml microfuge tube and lysed in ice cold RIPA buffer (1×PBS, 1% Nonidet P40, 0.5% sodium doxycholate, 0.1% SDS with 50 mM NaF, […], 0.1 mM Na Vanadate, 20 μg/ml Aprotinin, 10 μg/ml Leupeptin) using a tissue lyser (Retsch, Inc Newtown, Pa. Cat. #85210) at 30 hz for 3 min. Samples were spun at 12,000 rpm for 15 min (4° C.) at which time the internatant was removed to a new tube and sonicated for 15 sec on ice. Samples were spun at 14,000 rpm for 10 min (4° C.) and the internatant was collected to a new tube. Samples were again spun at 19,000 rpm for 10 min (4° C.) and the internatant collected to a new tube. An aliquot of sample was then taken for protein assay. Samples were then boiled in 4×SDS/DTT buffer for 2 min. 50 μg of protein from cell lysate were subjected to SDS/PAGE on 9% (w/v) acrylamide resolving gels and transferred to Hybond ECL nictrocellulose membranes. […] After washing, primary antibody detection was performed using either HRP-conjugated anti-(rabbit IgG) or anti-(mouse IgG) (HRP-conjugated anti-rabbit and anti-mouse secondary antibodies were purchased from Bio-Rad (170-6515 & 170-6516)) and detected using enhanced chemiluminescence (Amersham Biosciences) and exposed to CL-Xposure film (Pierce).
# [3] = system: Uncoupling protein I (UCP1); assay: UCP1 levels in brown adipose tissue; design: species or system mice; conditions: mouse, in vivo
# [4] = Body weight of DIO mice after i.p. injection (Example 26); assay type: in vivo; conditions: 15 or 70 nmol/kg i.p., 7 days
# Method: DIO mice were injected intraperitoneally with vehicle only or 15 or 70 nmol/kg of one of the following:
# Body weight was measured before injection and at 1, 3, 5, and 7 days post-injection.
# [5] = Diet-induced obese rats, once-a-week injection, 3-week treatment; assay type: in vivo; conditions: 70 nmol/kg/week, 3 weeks
# Method: To determine if the principal phenomenon generalizes across species, both compounds were administered to diet-induced obese rats (mean weight 777.4+/−2.1 g, dose 70 nmol/kg/week, once-a-week injection, 3-week treatment).
# [6] = GLP-1 receptor knock out (GLP-1R−/−) mice on high-fat diet, one month; assay type: in vivo
# [7] = 70 nmol/kg s.c. Days 0 and 7, Day 9
substance,measurement,setting,value
H(Aib)QGTFTSDYSKYLDEQAAKEFICWLMNT-amide [Peptide X-PEG],leptin,[1]; [7],7308 ± 2927 pg/mL
same,plasma triglycerides,[1]; [7],no significant effect on triglycerides
same,"blood glucose profile (AUC), i.p. glucose challenge",[1]; Day 3,13794±824.1
same,Plasma C-peptide levels,[1]; after one month of treatment,624.7 pg/mL
same,plasma insulin,[1]; after one month of treatment,1034 pg/mL
same,total cholesterol,[1]; chronic s.c. treatment over 27 days,106.9 mg/dL
same,dose response of body weight and blood glucose,[1]; single s.c. 0-350 nmol/kg,"linearly responsive, dose-dependent decreases in body weight and blood glucose"
same,Energy expenditure,[1]; weekly s.c. 70 nmol/kg,17.19±1.49 kcal/[kg*h]
same,change in fat mass,[1]; weekly s.c. 70 nmol/kg,−52.2%
same,respiratory quotient,[1]; weekly s.c. 70 nmol/kg,0.725±0.01
same,"Blood glucose levels, mean decrease","[1]; weekly s.c. 70 nmol/kg, from Day 3",−24.5%
same,decrease in body weight,"[1]; weekly s.c. 70 nmol/kg, one month",20.1%
same,phosphorylation of hormone sensitive lipase (HSL) in white adipose tissue,[2],1.135±0.315
same,Uncoupling protein I (UCP1) levels in brown adipose tissue,[3],2.167±0.429
same,ability to lower body weight,[4],comparable ability to lower body weight
same,change in body weight,[5],−11.15+/−0.88%
same,change in fat mass,[5],−19.17+/−2.03%
same,body weight,[6],caused a reduction of body weight (p>0.05
same,food intake,[6],no effect on food intake

# — US8969294B2 (Istituto di Recerche di Biologia Molecolare P. Angeletti …, priority 2008, dated 2015)
